Source: US4889872A, “2,3,5,6-Tetrafluorobenzyl (+) 1r-trans-2,2-dimethyl-3-(2,2-dichlorovinyl)-cyclopropanecarboxylate” (priority 1987, dated 1989)
Read-outs that look alike come from different tables or passages of the source.

Assays:
flies = settings: versus mixture of equal parts of the 2,3,5,6-tetrafluorobenzyl and 3,5,6-trifluorobenzyl ester; cited from earlier work
insects [1] = settings: prior art, ester alone; cited from earlier work
[2] = test system: Musca domestica, resistant; experiment: Aerosol Test (knock-down effect on resistant flies, 30 m^3 room); type: in vivo
Source text: In each experiment, 3 wire cages each containing 20 resistant male Musca domestica are suspended in rooms of volume 30 m^3. The room is then sprayed using spray cans containing active compounds I, II, III and IV or active compound mixtures I+IV; II+IV; V+VI; V+VI+I and V+VI+II according to formulation Examples 1-9.
The amount of spray applied per spray can is 12.4 g. After spraying, the rooms are sealed and the action of the spray mist on the flies observed continuously through windows. The number of minutes after which 50 and 95% of the animals had fallen onto their backs (knock-down effect) is recorded. After a tesst duration of 1 hour, the percentage of knocked-downanimals is subsequently determined. The table below contains the values determined.

Aedes aegypti = experiment: Vapor test (knock-down action on mosquitoes, electroevaporator ovens); type: in vivo; settings: compound II 10 mg
Method: Small cellulose tablets containing active compound according to formulation examples Nos. 9 and 10 are placed on the hotplate of small electroevaporator ovens, producing temperatures of 130° and 160° C. The instruments ae connected to the mains via a socket and heated up in living rooms of equal size and equally equipped.
During the experiment, one window in the rooms remained open to the outside in the tilted position. Immediately after switching on the ovens, 2 wire baskets each containing 20 mosquitoes of the Aedes aegypti species, 3-4 days old, were hung in each room. The knock-down action on the mosquitoes was checked half or one hour later. After the oven had burnt for a longer period, fresh mosquitoes were again introduced in the same way into the rooms at certain times, and the activity was again tested after half or one hour. The temperature of the heating oven, the amounts of reactive compounds, the heating duration, the test time and the knockdown effect can be seen from the table below.
(%Knock-down: percentage of mosquitoes which have fallen onto their backs).
In the present test, active compounds I (according to the invention) and II ((-)1R-trans-isomer of fenfluthrin) were employed.

rats [3] = settings: cited from earlier work
insects [4] = experiment: insecticidal / biological action (general statements); type: in vivo
rats [5] = experiment: oral toxicity to mammals (LD50, rats); type: in vivo
[6] = oral toxicity to mammals (LD50, rats); type: in vivo; settings: rat, in vivo; male rats; oral
[7] = compound I 10 mg, oven 130 °C, animals introduced after 0 h heating, residence 1 h
[8] = compound I 10 mg, oven 130 °C, animals introduced after 8 h heating, residence 1 h
[9] = compound I 10 mg, oven 130 °C, animals introduced after 26 h heating, residence 1 h
[10] = compound I 10 mg, oven 130 °C, animals introduced after 50 h heating, residence 1 h
[11] = compound I 10 mg, oven 160 °C, animals introduced after 0 h heating, residence 1 h
[12] = compound I 10 mg, oven 160 °C, animals introduced after 8 h heating, residence 1 h
[13] = compound I 10 mg, oven 160 °C, animals introduced after 26 h heating, residence 1 h
[14] = compound I 20 mg, oven 130 °C, animals introduced after 0 h heating, residence 1 h
[15] = compound I 20 mg, oven 130 °C, animals introduced after 8 h heating, residence 1 h
[16] = compound I 20 mg, oven 130 °C, animals introduced after 26 h heating, residence 1 h
[17] = compound I 20 mg, oven 130 °C, animals introduced after 50 h heating, residence 1 h
[18] = compound I 20 mg, oven 160 °C, animals introduced after 0 h heating, residence 1 h
[19] = compound I 20 mg, oven 160 °C, animals introduced after 8 h heating, residence 1 h
[20] = compound I 20 mg, oven 160 °C, animals introduced after 28 h heating, residence 1 h
[21] = compound I 30 mg, oven 130 °C, animals introduced after 0 h heating, residence 0.5 h
[22] = compound I 30 mg, oven 130 °C, animals introduced after 8 h heating, residence 0.5 h
[23] = compound I 30 mg, oven 130 °C, animals introduced after 26 h heating, residence 0.5 h
[24] = compound I 30 mg, oven 130 °C, animals introduced after 50 h heating, residence 0.5 h
[25] = compound I 30 mg, oven 160 °C, animals introduced after 0 h heating, residence 0.5 h
[26] = compound I 30 mg, oven 160 °C, animals introduced after 8 h heating, residence 0.5 h
[27] = compound I 30 mg, oven 160 °C, animals introduced after 28 h heating, residence 0.5 h
[28] = compound I 30 mg, oven 160 °C, animals introduced after 32 h heating, residence 0.5 h

Structure (SMILES)	50% knock-down after minutes ([2]; 5 mg/30 m^3) [min]	95% knock-down after minutes ([2]; 5 mg/30 m^3) [min]	% knock-down after 1 hour ([2]; 5 mg/30 m^3, 1 hour) [%]	% knock-down (Aedes aegypti; [7]) [%]	% knock-down (Aedes aegypti; [8]) [%]	% knock-down (Aedes aegypti; [9]) [%]	% knock-down (Aedes aegypti; [10]) [%]	% knock-down (Aedes aegypti; [11]) [%]	% knock-down (Aedes aegypti; [12]) [%]	% knock-down (Aedes aegypti; [13]) [%]	% knock-down (Aedes aegypti; [14]) [%]	% knock-down (Aedes aegypti; [15]) [%]	% knock-down (Aedes aegypti; [16]) [%]	% knock-down (Aedes aegypti; [17]) [%]	% knock-down (Aedes aegypti; [18]) [%]	% knock-down (Aedes aegypti; [19]) [%]	% knock-down (Aedes aegypti; [20]) [%]	% knock-down (Aedes aegypti; [21]) [%]	% knock-down (Aedes aegypti; [22]) [%]	% knock-down (Aedes aegypti; [23]) [%]	further results
CC1(C)C(C=C(Cl)Cl)C1C(=O)OCc1c(F)c(F)c(F)c(F)c1F (stereo not shown) [pentafluorobenzyl ester]	–	–	–	–	–	–	–	–	–	–	–	–	–	–	–	–	–	–	–	–	amount that killed flies in the same time (flies): only a fifteenth of it killed flies in the same time
CC1(C)C(C=C(Cl)Cl)C1C(=O)OCc1c(F)c(F)cc(F)c1F (stereo not shown) [tetrafluorobenzyl ester]	–	–	–	–	–	–	–	–	–	–	–	–	–	–	–	–	–	–	–	–	insecticidal action (insects [1]): good insecticidal action
CC1(C)[C@H](C=C(Cl)Cl)[C@H]1C(=O)OCc1c(F)c(F)c(F)c(F)c1F [Active compound II, pentafluorobenzyl (-)1R-trans-2,2-dimethyl-3-(2,2-dichlorovinyl)-cyclopropanecarboxylate]	19	37	99	100	100	100	97	100	100	40	100	100	100	95	100	100	92	65	100	97	% knock-down (Aedes aegypti; [24]): 75%; % knock-down (Aedes aegypti; [25]): 45%; % knock-down (Aedes aegypti; [26]): 100%; % knock-down (Aedes aegypti; [27]): 92%; % knock-down (Aedes aegypti; [28]): 47%; oral LD50 (rats [3]; rats): 90 to 105 mg/kg
COP(=O)(OC)OC=C(Cl)Cl [Active compound IV, dichlorvos]	–	–	–	–	–	–	–	–	–	–	–	–	–	–	–	–	–	–	–	–	% knock-down after 1 hour ([2]; 124 mg/30 m^3, 1 hour): 22%
CC1(C)C(C=C(Cl)Cl)C1C(=O)OCc1c(F)c(F)cc(F)c1F (racemic) [Active compound III, tetrafluorobenzyl cis/trans-2,2-dimethyl-3-(2,2-dichlorovinyl)-cyclopropanecarboxylate]	38	52	97	–	–	–	–	–	–	–	–	–	–	–	–	–	–	–	–	–	biological action (insects [4]; compared with tetrafluorobenzyl (+)1R-trans ester according to the invention): lower biological action; oral LD50 (rats [3]; male rats): 10 to 25 mg/kg
CC1(C)[C@H](C=C(Cl)Cl)[C@H]1C(=O)OCc1c(F)c(F)cc(F)c1F [Active compound I, 2,3,5,6-Tetrafluoro-benzyl (+)1R-trans-2,2-dimethyl-3-(2,2-dichlorovinyl)-cyclopropanecarboxylate]	22	47	96	100	100	100	85	100	100	55	100	100	100	100	100	100	100	97	100	100	50% knock-down after minutes ([2]; 7.5 mg/30 m^3): 18 min; 95% knock-down after minutes ([2]; 7.5 mg/30 m^3): 33 min; % knock-down after 1 hour ([2]; 7.5 mg/30 m^3, 1 hour): 99%; % knock-down (Aedes aegypti; [24]): 92%; % knock-down (Aedes aegypti; [25]): 100%; % knock-down (Aedes aegypti; [26]): 100%; % knock-down (Aedes aegypti; [27]): 100%; % knock-down (Aedes aegypti; [28]): 100%; therapeutic index (rats [5]; gap between effective dose for the pest and toxicity to mammals): surprisingly favorable therapeutic index; toxicity to mammals lower than that of pentafluorobenzyl (-)1R-trans ester (rats [5]; ratio versus pentafluorobenzyl (-)1R-trans-2,2-dimethyl-3-(2,2-dichlorovinyl)-cyclopropanecarboxylate): 50 times; toxicity to mammals lower than that of tetrafluorobenzyl cis/trans ester (rats [5]; ratio versus tetrafluorobenzyl cis/trans-2,2-dimethyl-3-(2,2-dichlorovinyl)-cyclopropanecarboxylate): more than 250 times; LD50 [6]: > 5000 mg/kg; insecticidal action (insects [4]; compared to pentafluorobenzyl (-)1R-trans ester, at the same or an only slightly higher dosage): comparable insecticidal action
